Assays:
[1] = molecular target: T1, human norepinephrine transporter (Homo sapiens, UniProt P23975); test: hNET receptor binding ([125I]-RTI-55 radioligand binding); conditions: membranes of HEK-293 cells transfected with human norepinephrine transporter, IC50 converted to Ki by Cheng-Prusoff, read-out: hNET (Ki)
T1 construct: host or cells: HEK-293
From the text: (§1) The ability of the compounds of this invention to bind to the hNET and serotonin SERT receptor can be determined using conventional radiolig and receptor binding assays. The receptors can be heterologously expressed in cell lines and experiments conducted in membrane preparations from the cell lines using procedures outlined below. IC50 concentrations can be determined by nonlinear regression of concentration-dependent reduction in specific binding. The Cheng-Prussoff equation can be used to convert the IC50 to Ki concentrations.
Cell pastes of HEK-293 cells transfected with the human norepinephrine transporter were supplied by the Pfizer Ann Arbor Protein Expression and Production group. […] Aliquots of membranes (5 mg/ml protein) were stored in liquid nitrogen until used.
(§2) The reaction was incubated by gentle agitation for 90 min at room temperature and was terminated by filtration through Whatman GF/C filter plates using a Brandel 96-well plate harvester. […] Test compounds were run in duplicate, and specific binding was defined as the difference between binding in the presence and absence of 10 μM desipramine.
(§3) Excel and GraphPad Prism software were used for data calculation and analysis. IC50 values were converted to Ki values using the Cheng-Prusoff equation.

[2] = molecular target: T2, human seritonin transporter (Homo sapiens, UniProt P31645); test: hSERT receptor binding ([125I]-RTI-55 radioligand binding); conditions: membranes of HEK-293 cells transfected with human seritonin transporter, IC50 converted to Ki by Cheng-Prusoff, read-out: SERT (Ki)
T2 construct: host or cells: HEK-293
T2 sequence (P31645 whole entry): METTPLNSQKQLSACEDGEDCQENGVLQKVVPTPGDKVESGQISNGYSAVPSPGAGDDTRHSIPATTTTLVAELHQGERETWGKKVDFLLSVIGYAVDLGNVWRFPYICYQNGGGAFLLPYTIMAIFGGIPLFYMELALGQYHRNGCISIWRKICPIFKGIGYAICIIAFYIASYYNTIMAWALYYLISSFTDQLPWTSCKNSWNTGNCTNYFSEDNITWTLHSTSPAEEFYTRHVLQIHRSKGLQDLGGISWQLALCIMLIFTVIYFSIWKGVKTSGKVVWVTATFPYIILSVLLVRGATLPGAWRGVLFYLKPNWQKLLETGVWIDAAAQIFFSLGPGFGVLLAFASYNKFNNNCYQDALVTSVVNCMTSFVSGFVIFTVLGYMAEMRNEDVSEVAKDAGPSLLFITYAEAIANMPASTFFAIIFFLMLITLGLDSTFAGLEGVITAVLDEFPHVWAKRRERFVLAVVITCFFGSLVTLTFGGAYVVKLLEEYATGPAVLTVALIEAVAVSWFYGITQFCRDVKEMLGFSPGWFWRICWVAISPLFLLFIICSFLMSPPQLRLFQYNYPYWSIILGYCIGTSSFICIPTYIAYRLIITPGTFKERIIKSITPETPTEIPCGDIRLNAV
From the text: as §1
Cell pastes of HEK-293 cells transfected with the human seritonin transporter were supplied by the Pfizer Ann Arbor Protein Expression and Production group. […] Aliquots of membranes (5 mg/ml protein) were stored in liquid nitrogen until used.
as §2, with “[…] citalopram.” for “μM desipramine.”
as §3

T1 sequence (P23975 whole entry): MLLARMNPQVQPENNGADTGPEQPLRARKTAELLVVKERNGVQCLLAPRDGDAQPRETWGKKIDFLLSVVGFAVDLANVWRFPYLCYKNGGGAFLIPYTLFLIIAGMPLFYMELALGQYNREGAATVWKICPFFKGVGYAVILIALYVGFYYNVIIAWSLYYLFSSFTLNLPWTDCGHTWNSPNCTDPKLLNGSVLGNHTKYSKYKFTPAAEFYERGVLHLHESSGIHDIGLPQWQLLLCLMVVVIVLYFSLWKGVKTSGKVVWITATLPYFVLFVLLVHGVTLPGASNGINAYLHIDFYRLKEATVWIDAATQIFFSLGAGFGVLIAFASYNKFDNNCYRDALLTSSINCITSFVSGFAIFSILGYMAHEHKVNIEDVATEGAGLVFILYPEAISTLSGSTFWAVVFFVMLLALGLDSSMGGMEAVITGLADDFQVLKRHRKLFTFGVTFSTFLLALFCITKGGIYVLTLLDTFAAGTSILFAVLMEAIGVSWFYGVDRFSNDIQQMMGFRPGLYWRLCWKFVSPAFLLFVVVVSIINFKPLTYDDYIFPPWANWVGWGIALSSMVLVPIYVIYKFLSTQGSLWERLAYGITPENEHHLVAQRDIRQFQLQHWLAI

Row | Ki [1] [µM] | Ki [2] [µM] | SMILES
1 | 0.006 | 0.46 | Fc1cccc(C2CC2)c1O[C@@H](c1ccccc1)C1CNCCO1 (stereo in doubt) [Example 184, (2S)-2-[(S)-(2-cyclopropyl-6-fluorophenoxy)(phenyl)methyl]morpholine]
2 | 0.0042 | 4.71 | FC(F)(F)c1ccccc1O[C@@H](c1ccccc1)[C@@H]1CNCCO1 [Example 8, (S)-2-[(S)-Phenyl-(2-trifluoromethyl-phenoxy)-methyl]-morpholine]
3 | 0.006 | 6.5 | Fc1cccc(F)c1O[C@@H](c1ccccn1)[C@@H]1CNCCO1 [Example 160, (2S)-2-[(S)-(2,6-difluorophenoxy)(pyridin-2-yl)methyl]morpholine]
4 | 0.003 | 0.707 | Fc1cccc(C(F)(F)F)c1O[C@@H](c1ccccc1)[C@@H]1CNCCO1 [Example 193, (2S)-2-[(S)-[2-fluoro-6-(trifluoromethyl)phenoxy](phenyl)methyl]morpholine]
5 | 0.009 | 0.471 | CCCc1ccccc1O[C@@H](c1ccccc1)[C@@H]1CNCCO1 [Example 97, (2S)-2-[(S)-phenyl(2-propylphenoxy)methyl]morpholine]
6 | 0.011 | 5.6 | N#Cc1ccccc1O[C@@H](c1ccccc1)[C@@H]1CNCCO1 [Example 93, 2-[(S)-(2S)-morpholin-2-yl(phenyl)methoxy]benzonitrile]
7 | 0.006 | ≥ 10 | COc1cccc(F)c1O[C@@H](c1ccccn1)[C@@H]1CNCCO1 [Example 158, (2S)-2-[(S)-(2-fluoro-6-methoxyphenoxy)(pyridin-2-yl)methyl]morpholine]
8 | 0.0018 | 0.452 | c1ccc([C@H](Oc2ccccc2C2CC2)[C@@H]2CNCCO2)cc1 [Example 11, (S)-2-[(S)-(2-Cyclopropyl-phenoxy)-phenyl-methyl]-morpholine]
9 | 0.038 | 1.88 | c1ccc([C@H](Oc2cccnc2OCC2CC2)[C@@H]2CNCCO2)cc1 [Example 192, (2S)-2-[(S)-{[2-(cyclopropylmethoxy)pyridin-3-yl]oxy}(phenyl)methyl]morpholine]
10 | 0.015 | 0.071 | Fc1cccc(Cl)c1O[C@@H](c1ccccc1)[C@@H]1CNCCO1 [Example 113, (2S)-2-[(S)-(2-chloro-6-fluorophenoxy)(phenyl)methyl]morpholine]
11 | 0.0053 | 1.36 | CC(C)c1ccccc1O[C@@H](c1ccccc1)[C@@H]1CNCCO1 [Example 44, (S)-2-[(S)-(2-Isopropyl-phenoxy)-phenyl-methyl]-morpholine]

Second part, the compound before the results:

Row | SMILES | Ki [1] [µM] | Ki [2] [µM]
12 | c1cnc(OC[C@H]2CNCCO2)c(OC[C@H]2CNCCO2)n1 [Example 200, (2R,2′R)-2,2′-[pyrazine-2,3-diylbis(oxymethylene)]dimorpholine] | 9.55 | ≥ 10
13 | CCOc1ncccc1OC(CC)[C@@H]1CNCCO1 (mixture of isomers) [Example 136, (2S)-2-{1-[(2-ethoxypyridin-3-yl)oxy]propyl}morpholine] | 0.102 | 6.14
14 | CCOC(=O)c1ccccc1O[C@@H](c1ccccc1)[C@@H]1CNCCO1 [Example 15, (2S,3S)-2-(Morpholin-2-yl-phenyl-methoxy)-benzoic acid ethyl ester] | 0.015 | 3.77
15 | c1ccc([C@H](Oc2ccc3occc3c2)[C@@H]2CNCCO2)cc1 [Example 48, (S)-2-[(S)-(Benzofuran-5-yloxy)-phenyl-methyl]-morpholine] | 0.031 | 0.01
16 | Fc1ccc(-c2cc(F)ccc2OCC2CNCCO2)cc1 [Example 76, (R)- and (S)-2-(5,4′-Difluoro-biphenyl-2-yloxymethyl)-morpholine] | 0.064 | 0.349
17 | c1ccc([C@H](Oc2ccccc2C2CCCC2)[C@@H]2CNCCO2)nc1 [Example 132, (2S)-2-[(S)-(2-cyclopentylphenoxy)(pyridin-2-yl)methyl]morpholine] | 0.018 | 6.12
18 | COc1ccccc1-c1ccccc1OCC1CNCCO1 (stereo not shown) [Example 74, 2-(2′-Methoxy-biphenyl-2-yloxymethyl)-morpholine] | 0.055 | ≥ 10
19 | Fc1ccc(-c2ccccc2O[C@@H](c2ccccc2)[C@@H]2CNCCO2)cc1 [Example 81, (S)-2-[(S)-(4′-Fluoro-biphenyl-2-yloxy)-phenyl-methyl]-morpholine] | 0.0096 | 4.32
20 | CCOc1ccccc1OC(c1cccc(F)c1)C1CNCCO1 (stereo in doubt) [Example 70, (R)-2-[(S)-(2-Ethoxy-phenoxy)-(3-fluoro-phenyl)-methyl]-morpholine] | 0.011 | 0.818
21 | CCOc1ccccc1O[C@@H](c1cccc(C)n1)[C@@H]1CNCCO1 [Example 107, (2S)-2-[(S)-(2-ethoxyphenoxy)(6-methylpyridin-2-yl)methyl]morpholine] | 0.027 | 3.67
22 | FCCCc1ccccc1O[C@@H](c1ccccc1)[C@@H]1CNCCO1 [Example 145, (2S)-2-[(S)-[2-(3-fluoropropyl)phenoxy](phenyl)methyl]morpholine] | 0.045 | 4.14
23 | CCOc1ncccc1O[C@@H](C)[C@@H]1CNCCO1 [Example 144, (2S)-2-{(1S)-1-[(2-ethoxypyridin-3-yl)oxy]ethyl}morpholine] | 0.304 | 7.22
24 | c1ccc(COc2ccccc2O[C@@H](c2ccccn2)[C@@H]2CNCCO2)cc1 [Example 102, (2S)-2-[(S)-[2-(benzyloxy)phenoxy](pyridin-2-yl)methyl]morpholine] | 0.082 | 5.74
25 | COc1cccc([C@H](Oc2ccccc2Br)[C@@H]2CNCCO2)n1 [Example 187, (2S)-2-[(S)-(2-bromophenoxy)(6-methoxypyridin-2-yl)methyl]morpholine] | 0.015 | 0.224
26 | Fc1ccc(OC(C2CC2)[C@@H]2CNCCO2)c(F)c1 (mixture of isomers) [Example 99, (2S)-2-[cyclopropyl(2,4-difluorophenoxy)methyl]morpholine] | 0.88 | 1.27
27 | c1ccc(C(Oc2ccc3ccoc3c2)C2CNCCO2)cc1 (stereo in doubt) [Example 45, (R)-2-[(S)-(Benzofuran-6-yloxy)-phenyl-methyl]-morpholine] | 0.01 | 0.045
28 | Cc1cccnc1[C@H](Oc1ccccc1OC(F)(F)F)[C@@H]1CNCCO1 [Example 139, (2S)-2-{(S)-(3-methylpyridin-2-yl)[2-(trifluoromethoxy)phenoxy]methyl}morpholine] | 1.19 | 1.14
29 | FC(F)(F)Oc1ccccc1O[C@@H](c1ccccn1)[C@@H]1CNCCO1 [Example 129, (2S)-2-{(S)-pyridin-2-yl[2-(trifluoromethoxy)phenoxy]methyl}morpholine] | 0.008 | 4.47
30 | CCCC[C@H](Oc1cccnc1OCC)[C@@H]1CNCCO1 [Example 176, (2S)-2-{(1S)-1-[(2-ethoxypyridin-3-yl)oxy]pentyl}morpholine] | 0.005 | 3.42
31 | Cc1ccc(-c2cc(F)ccc2OCC2CNCCO2)cc1 (single isomer, unassigned) [Example 75] | 0.022 | 0.849
32 | CCOc1ccccc1OC(CC)[C@@H]1CNCCO1 (mixture of isomers) [Example 106] | 0.054 | ≥ 10

From patent US7659394B2 (Pfizer Inc, priority 2004, dated 2010)
